The source of these data is US20190282600A1, “COMBINATION THERAPIES TARGETING TERT DEPENDENCY FOR CANCER THERAPY” (The Wistar Institute of Anatomy and Biology, priority 2018, published 2019).

Series [1] has as its system NRAS mutant melanoma cells. Description: Cell viability, Alamar Blue assay. In kind it is cell-based, Human. As for the experimental part: FIGS. 2a to 2c show NRAS^mut melanoma cells (FIG. 2a), BRAF-V600E/NRAS mutant cells derived from melanoma patients resistant to BRAF/MEK inhibitors (FIG. 2b), or non-transformed melanocytes and fibroblasts (FIG. 2c) were treated with 6-thio-dG for 7 days. Cell viability was measured by Alamar Blue assay and calculated relative to DMSO-treated cells. […] Cell death was assessed by PSVUe staining. Percent of apoptotic cells is shown. […] Mean TRF length expressed as kilobase pairs is indicated at the bottom. […] FIG. 2g provides a bar graph showing that DNA damage was assessed by γH2AX staining. Data represent average from three independent experiments ±SEM. *p<0.05; **p<0.01; ***p<0.005 in unpaired Student's t-test. […] Tumor volume was measured and average tumor volume (n=4) ±SEM was plotted vs. time.
(§1) Cells were seeded in 96-well plates and treated with drugs. After 6 days, cell viability was assessed following 6h incubation with […] Alamar Blue (ThermoFisherScientific, Philadelphia, Pa.) by measuring fluorescence using an EnVision Xcite Multilabel plate reader (Perkin Elmer, Waltham, Mass.). Cell death was determined by flow cytometry using PSVue-643 (Molecular Targeting Technologies) or Annexin V (640919, Biolegend, San Diego, Calif.) and Propidium Iodide (Sigma) staining. Samples were analyzed using a BD LSRII flow cytometer (BD Biosciences, San Jose, Calif.).
A general note: Resazurin is reduced to fluorescent resorufin, in cell work by metabolically active cells.

Series [2] deals with NRAS mutant melanoma cells. Description: Cell death by flow cytometry (PSVue or Annexin V/PI). In kind it is cell-based, Human. As for the experimental part:
FIGS. 2a to 2c show NRAS^mut melanoma cells (FIG. 2a), BRAF-V600E/NRAS mutant cells derived from melanoma patients resistant to BRAF/MEK inhibitors (FIG. 2b), or non-transformed melanocytes and fibroblasts (FIG. 2c) were treated with 6-thio-dG for 7 days. Cell viability was measured by Alamar Blue assay and calculated relative to DMSO-treated cells. […] Cell death was assessed by PSVUe staining. Percent of apoptotic cells is shown. […] Mean TRF length expressed as kilobase pairs is indicated at the bottom. […] FIG. 2g provides a bar graph showing that DNA damage was assessed by γH2AX staining. Data represent average from three independent experiments ±SEM. *p<0.05; **p<0.01; ***p<0.005 in unpaired Student's t-test. As presented in FIG. 2h, mice bearing established WM3000 or M93-047 NRAS^mut tumors were treated with vehicle control or 6-thio-dG (2.5 mg/kg i.p; q.d). Tumor volume was measured and average tumor volume (n=4) ±SEM was plotted vs. time.
FIGS. 3a to 3g provides graphs showing that telomere dysfunction enhances oxidative stress leading to upregulation of an antioxidant program. […] Mitochondrial superoxide production was measured by MitoSox Red fluorescence (FIGS. 3c, and 3d) and expressed as fluorescence relative to vector or DMSO controls. […] FIG. 3f provides a bar graph showing that SOD2 was silenced using shRNA. Transduced M93-047 cells were treated with DMSO or 1 μM of 6-thio-dG and cell death was assessed by Annexin V/PI straining. As presented in FIG. 3g, M93-047 cells were transduced with a SOD2 lentiviral construct or empty vector control (pLX304). Transduced cells were treated with increasing doses (1, 2.5 and 5 μM) of 6-thio-dG for 7 days and cell death was assessed. Data represent average from three independent experiments ±SEM. *p<0.05; **p<0.01; ***p<0.005 in unpaired Student's t-test.
FIGS. 4a to 4e provides bar graphs showing that induction of telomere and mitochondrial dysfunction triggers cell death in NRAS mutant melanoma. […] Cell death was assessed by Annexin V and PI staining. […] Cells were stained with Annexin V and PI and percent cell death was determined by flow cytometry. […] P values were calculated using unpaired Student's t-test; * p<0.05; *** p<0.005.
As presented in FIG. 16a, SOD2 was silenced using shRNA. Transduced WM3000 cells were treated with DMSO or 1 μM of 6-thio-dG and cell death was assessed by Annexin V/PI straining. […] Transduced cells were treated with increasing doses (1, 2.5 and 5 μM) of 6-thio-dG for 10 days and cell death was assessed. […]
In FIG. 17a, NRAS^mut melanoma cells were treated with 6-thio-dG (1 μM) for 7 days total. […] Percent cell death was determined by flow cytometry following staining of cells with Annexin V and Propidium iodide. […]
For orientation: A flow cytometer gives signals particle by particle.

Series [3] has as its system KRAS mutant A549 cells. Description: Cell death by Annexin V/PI flow cytometry. Format: cell-based. Particulars: 1 μM 6-thio-dG, 5 μM Gam. As for the experimental part: (§2) FIGS. 5a to 5e provide bar graphs showing that combination treatment with 6-Thio-dG and Gamitrinib (Gam) triggers death selectively in NRAS mutant tumor cells. NRAS-WT/BRAF-WT melanoma cells (FIG. 5a), NRAS-WT/BRAF-mut melanoma cells (FIG. 5b), NRAS mutant neuroblastoma cells (FIG. 5c), NRAS-WT/KRAS-mutant colon cancer cells (FIG. 5d), and NRAS-WT/KRAS-mutant lung cancer cells were treated with 1 μM 6-thio-dG for 5 days (FIG. 5e). At day 5, culture medium was replaced and cells treated with 1 μM 6-thio-dG plus 5 μM Gam for two more days. Cells were stained with Annexin V and PI and percent cell death was determined by FACS. Data represent average of three independent experiments +/−SEM; p values were calculated using un-paired Student's t-test; *p<0.05; **p<0.001.
as §1

In series [4] the test system is KRAS mutant HCT116 cells. Description: Cell death by Annexin V/PI flow cytometry. Particulars: 1 μM 6-thio-dG, 5 μM Gam. In kind it is cell-based. As for the experimental part: as §2, §1
In series [5] the test system is NRAS mutant SKNAS neuroblastoma cells. Description: Cell death by Annexin V/PI flow cytometry. To be noted: 1 μM 6-thio-dG, 5 μM Gam, single agents or in combination. In kind it is cell-based. As for the experimental part:
as §2, §1

The conditions of series [6]: mice; cited from earlier work.

Turning to `Nc1nc2c(ncn2[C@H]2C[C@H](O)[C@@H](CO)O2)c(=S)[nH]1` [6-thio-dG, 6-thio-2′-deoxyguanosine], the cell viability entry in series [1] (6-thio-dG for 7 days, relative to DMSO) is on record as “impaired the viability”. For the same molecule, the cell viability entry in series [1] (cells driven by secondary mutations in NRAS from patients with acquired resistance to BRAF and MEK inhibitors, 7 days) was “impaired the viability”. In series [2] (1 or 5 μM 6-thio-dG for 7 or 14 days), the “cell death (PSVue staining)” value is on record as “led to cell death after 7-14 days”. Also, the “apoptosis / cell death” value in series [2] (SOD2 overexpression, 1, 2.5 and 5 μM 6-thio-dG for 7 or 10 days, M93-047, WM3000) is “attenuated the apoptosis-inducing effects”. For the same molecule, the “apoptosis / cell death (Annexin V/PI)” value in series [2] (SOD2 silenced by shRNA, 1 μM 6-thio-dG, M93-047, WM3000) is “enhanced the ability of 6-Thio-dG to induce apoptosis”. The cell death entry in series [3] is given as “did not induce substantial death”. Further, the cell death result in series [4] was “did not induce substantial death”. The cell death result in series [5] is recorded as “triggered significant death”. In series [6], the “effect on alanine aminotransferase (ALT)” value was “no significant effects”, the “effect on aspartate aminotransferase (AST)” value is “no significant effects”, the “effect on creatinine levels” value is on record as “no significant effects” and the “effect on red blood cells” value is “no significant effects”. In series [6], the “effect on white blood cells” value is on record as “no significant effects”.
